Assay in all cases: hydroxylation, product quantified by HPLC-DAD ([…] nm)
Assay type in all cases: biochemical, Dahlia pinnata
Holding throughout (conditions): 1.55 mM NADPH, CrCPR microsomes, pH 7.5, 30 °C

For test [1], the system named is T1, DvCH3H (chalcone 3-hydroxylase).
T1 construct: gene CH3H; assayed with yeast microsomes containing recombinant Catharanthus roseus CPR (GenBank X69791.1); with NADPH--cytochrome P450 reductase (Catharanthus roseus)

Test [2] has the same test system. The source holds these as a separate data set.
Test [3] has the same test system. The source holds these as a separate data set.

Structures are written as SMILES.

This passage reports Km results from article PMC9122903, “First purified recombinant CYP75B including transmembrane helix with unexpected high substrate specificity to (2R)-naringenin” (Scientific Reports, 2022).

For `O=C1CC(c2ccc(O)cc2)Oc2cc(O)cc(O)c21` (racemic) [Racemic Naringenin], the Km – broadly, the substrate concentration at which the rate is half of its maximum – in test [1] (racemic mixture) came to 0.402 ± 0.046 µM.
For `O=C1C[C@H](c2ccc(O)cc2)Oc2cc(O)cc(O)c21` [(2R)-Naringenin], in test [1], the Km came to 0.408 ± 0.015 µM.
Take `O=C1C[C@@H](c2ccc(O)cc2)Oc2cc(O)cc(O)c21` [(2S)-Naringenin]: in test [1], the Km amounted to 0.76 ± 0.094 µM.
With `O=c1cc(-c2ccc(O)cc2)oc2cc(O)cc(O)c12` [Apigenin], in test [2], the Km is 0.329 ± 0.007 µM.
For `O=c1c(O)c(-c2ccc(O)cc2)oc2cc(O)cc(O)c12` [Kaempferol], the Km in test [3] amounted to 0.622 ± 0.069 µM.
